# Test results published in patent publication US10150757B2, “Quinazolinone derivatives as PARP inhibitors” (Janssen Pharmaceutica NV, priority 2004, dated 2018).
# Molecular target: T1, TANK-2 enzyme (Homo sapiens, UniProt Q9H2K2)
# T1 construct: made in house
# T1 sequence (Q9H2K2 1-1166): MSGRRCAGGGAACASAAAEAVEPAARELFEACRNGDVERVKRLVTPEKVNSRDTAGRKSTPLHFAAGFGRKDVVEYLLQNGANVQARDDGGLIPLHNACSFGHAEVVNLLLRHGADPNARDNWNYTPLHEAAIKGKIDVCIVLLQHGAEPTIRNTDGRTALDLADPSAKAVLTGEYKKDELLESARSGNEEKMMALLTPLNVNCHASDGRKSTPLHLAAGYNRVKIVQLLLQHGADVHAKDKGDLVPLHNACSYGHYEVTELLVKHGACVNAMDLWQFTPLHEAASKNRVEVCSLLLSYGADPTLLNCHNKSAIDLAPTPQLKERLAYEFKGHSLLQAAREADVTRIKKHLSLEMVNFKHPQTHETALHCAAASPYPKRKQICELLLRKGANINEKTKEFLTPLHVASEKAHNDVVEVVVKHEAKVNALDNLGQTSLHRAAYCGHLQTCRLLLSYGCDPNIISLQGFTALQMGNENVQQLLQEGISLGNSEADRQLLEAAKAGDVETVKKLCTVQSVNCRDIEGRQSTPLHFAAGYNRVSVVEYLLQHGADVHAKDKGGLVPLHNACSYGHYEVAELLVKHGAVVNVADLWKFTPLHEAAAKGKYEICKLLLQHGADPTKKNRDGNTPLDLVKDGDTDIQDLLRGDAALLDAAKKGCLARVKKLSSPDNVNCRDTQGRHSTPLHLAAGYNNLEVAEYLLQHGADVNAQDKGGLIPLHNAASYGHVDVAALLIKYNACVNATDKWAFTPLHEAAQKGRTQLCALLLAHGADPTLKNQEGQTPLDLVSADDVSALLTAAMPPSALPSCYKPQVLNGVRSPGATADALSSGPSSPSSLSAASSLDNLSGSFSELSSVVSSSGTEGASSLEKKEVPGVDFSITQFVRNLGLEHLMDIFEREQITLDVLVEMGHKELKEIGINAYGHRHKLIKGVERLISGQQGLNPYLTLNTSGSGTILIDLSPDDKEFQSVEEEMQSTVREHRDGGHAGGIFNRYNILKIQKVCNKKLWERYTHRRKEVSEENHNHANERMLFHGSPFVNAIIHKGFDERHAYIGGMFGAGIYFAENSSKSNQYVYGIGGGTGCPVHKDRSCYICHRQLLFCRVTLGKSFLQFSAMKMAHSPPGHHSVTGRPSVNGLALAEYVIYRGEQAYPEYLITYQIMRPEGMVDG
# Experiment: In vitro scintillation proximity assay (SPA) for TANK-2 inhibitory activity
# Type: biochemical
# Conditions: auto-poly(ADP-ribosyl)ation; 96-well plate results if available, otherwise 384-well; read-out: in vitro SPA assay TANK-2 pIC50 (converted)
# Protocol: In Vitro Scintillation Proximity Assay (SPA) for TANK-2 Inhibitory Activity
# Compounds of the present invention were tested in an in vitro assay based on SPA technology with Ni Flash plates (96 or 384 well).
# In principle, the assay relies upon SPA technology for the detection of auto-poly(ADP-ribosyl)ation of TANK-2 protein using [^3H]-nicotinamide adenine dinucleotide ([^3H]-NAD^+) as ADP-ribosyl donor.
# A stock solution of [^3H]-NAD^+/NAD was made by adding 64.6 μl of [^3H]-NAD^+ (0.1 mCi/ml, supplier: Perkin Elmer) and 46.7 μl NAD-stock (10.7 mM, stored at −20° C., supplier Roche) to 1888.7 μl assay buffer (60 mM Tris/HCl, pH 7.4; 0.9 mM DTT; 6 mM MgCl2). The TANK-2 enzyme was produced as described in EP1238063. 60 μl of assay buffer, together with 1 μl of compound in DMSO, 20 μl of [^3H]-NAD^+/NAD and 20 μl of TANK-2 enzyme (final concentration 6 μg/ml) was added per well into a 96-well Ni-coated flash plate (Perkin Elmer). After incubation of the mixture for 120 min. at room temperature, the reaction was terminated by adding 60 μl of stop solution (42.6 mg NAD in 6 ml H2O). The plates were covered with a plate sealer and placed in a TopCountNXT™ (Packard) for scintillation counting. Values were expressed as counts per minute (cpm). For each experiment, controls (containing TANK-2 enzyme and DMSO without compound), a blank incubation (containing DMSO but no TANK-2 enzyme or compound) and samples (containing TANK-2 enzyme and compound dissolved in DMSO) were run in parallel. All compounds tested were dissolved and eventually further diluted in DMSO. In first instance, compounds were tested at a concentration of 10^−5M. […] In each test, the blank value was subtracted from both the control and the sample values. The control sample represented maximal TANK-2 enzyme activity. For each sample, the amount of cpm was expressed as a percentage of the mean cpm value of the controls. When appropriate, IC50-values (concentration of the drug, needed to reduce the TANK-2 enzyme activity to 50% of the control) were computed using linear interpolation between the experimental points just above and below the 50% level. Herein the effects of test compounds are expressed as pIC50 (the negative log value of the IC50-value). As reference compounds, 3-aminobenzamide and 4-amino-1,8-naphthalimide were included to validate the SPA assay. Herein the assay was described using 96-well plates. In the assay using 384-well plates the same final concentrations were used and volumes were adapted.
row,IC50,Compound
1,0.746 µM,Nc1c(Cl)cc(C(=O)OCC2CCN(CCNc3nc4ccccc4c(=O)[nH]3)CC2)c2c1OCCO2 [Compound 7]
2,> 10 µM,O=c1[nH]c(NCCCN2CCC(n3c(=O)[nH]c4ccccc43)CC2)nc2ccccc12 [Compound 29]
3,> 10 µM,CCCCn1cc(C2CCN(CCCNc3nc4ccccc4c(=O)[nH]3)CC2)c2ccccc21 [Compound 28]
4,> 10 µM,CO[C@H]1CN(CCCNc2nc3ccccc3c(=O)[nH]2)CC[C@H]1NC(=O)c1cc(Cl)cc2c1OC(C)(C)C2 [Compound 18]
5,> 10 µM,O=c1[nH]c(NCCCN2CCC(Nc3cccc4ccccc34)CC2)nc2ccccc12 [Compound 42]
6,> 10 µM,Nc1c(Cl)cc(C(=O)NC2CCN(CCCNc3nc(O)c4ccccc4n3)CC2)c2c1CCO2 [Compound 45]
7,> 10 µM,O=c1[nH]c(NCCCN2CCC(c3noc4cc(F)ccc34)CC2)nc2ccccc12 [Compound 26]
8,> 10 µM,O=c1[nH]c(NCCCN2CCC(c3c[nH]c4ccccc34)CC2)nc2ccccc12 [Compound 20]
9,0.938 µM,O=c1[nH]c(NCCN2CCC(Nc3n[nH]c(=O)c4ccccc34)CC2)nc2ccccc12 [Compound 33]
10,> 10 µM,O=c1nc(NCCCN2CCC(Nc3nccc4ccccc34)CC2)[nH]c2ccccc12 [Compound 40]
11,> 10 µM,O=c1[nH]c(NCCCN2CCC(c3n[nH]c4cc(F)ccc34)CC2)nc2ccccc12 [Compound 25]
12,0.794 µM,O=c1[nH]c(NCCN2CCC(Nc3nc4ccccc4c(=O)[nH]3)CC2)nc2ccccc12 [Compound 30]
13,> 10 µM,O=C(NC1CCN(CCCNc2nc3ccccc3c(=O)[nH]2)CC1)c1ccccc1 [Compound 23]
14,> 10 µM,CO[C@@H]1CN(CCCNc2nc(O)c3ccccc3n2)CC[C@@H]1NC(=O)c1cc(Cl)c(N)c2c1OCCC2 [Compound 6]
15,> 10 µM,CC1(C)Cc2c(N)c(Cl)cc(C(=O)NC3CCN(CCCCNc4nc(O)c5ccccc5n4)CC3)c2O1 [Compound 5]
16,> 10 µM,O=C(c1ccc(F)cc1)C1CCN(CCNc2nc3ccccc3c(=O)[nH]2)CC1 [Compound 46]
17,> 10 µM,CO[C@@H]1CN(CCCNc2nc(O)c3ccccc3n2)CCN1NC(=O)c1cc(Cl)c(N)c2c1OC(C)(C)C2 [Compound 8]
18,> 10 µM,CC1(C)Cc2c(N)c(Cl)cc(C(=O)NC3CCN(CCCNc4nc(O)c5ccccc5n4)CC3)c2O1 [Compound 4]

# Continued, compound first:
row,Compound,IC50
1,O=c1[nH]c(NCCN2CCN(c3n[nH]c4cc(F)ccc34)CC2)nc2ccccc12 [Compound 41],> 10 µM
2,Cc1ccc2nc(NCCN3CCN(c4n[nH]c5ccccc45)CC3)[nH]c(=O)c2c1 [Compound 43],> 10 µM
3,O=c1[nH]c(NCCCN2CCN(c3nsc4ccccc34)CC2)nc2ccccc12 [Compound 24],> 10 µM
4,CCc1cc2cc(CN3CCN(CCNc4nc5ccccc5c(=O)[nH]4)CC3)ccc2nc1OC [Compound 3],1.77 µM
5,O=c1[nH]c(NCCCN2CCC(O)(c3ccc(Cl)cc3)CC2)nc2ccccc12 [Compound 2],> 10 µM
6,O=c1[nH]c(NCCN2CCN(c3nc4ccccc4c(=O)[nH]3)CC2)nc2ccccc12 [Compound 38],0.537 µM
7,O=c1[nH]c(NCCN2CCC(c3n[nH]c4cc(F)ccc34)CC2)nc2ccc(Cl)cc12 [Compound 36],> 10 µM
8,Cc1ccc2nc(NCCN3CCC(c4n[nH]c5cc(F)ccc45)CC3)[nH]c(=O)c2c1 [Compound 37],> 10 µM
9,O=c1[nH]c(NCCN2CCC(c3n[nH]c4cc(F)ccc34)CC2)nc2ccccc12 [Compound 21],> 10 µM
10,O=c1[nH]c(NCCN2CCN(c3n[nH]c4ccccc34)CC2)nc2ccc(Cl)cc12 [Compound 1],> 10 µM
11,O=c1[nH]c(NCCN2CCC(c3n[nH]c4cc(F)ccc34)CC2)nc2cc(Cl)ccc12 [Compound 31],> 10 µM
12,O=c1[nH]c(NCCCN2CCN(c3n[nH]c4ccccc34)CC2)nc2ccccc12 [Compound 22],8.45 µM
13,O=c1[nH]c(NCCN2CCN(c3n[nH]c4ccccc34)CC2)nc2cc(Cl)ccc12 [Compound 44],> 10 µM
14,Cc1cccc2nc(NCCN3CCN(c4n[nH]c5ccccc45)CC3)[nH]c(=O)c12 [Compound 39],> 10 µM
15,O=c1[nH]c(NCCCN2CCN(c3n[nH]c4cc(F)ccc34)CC2)nc2ccccc12 [Compound 27],7.96 µM
